Legend:
mTOR (h) = target: T1, mTOR (h) (Homo sapiens, UniProt P42345); test: mTOR (h) kinase assay; format: biochemical
T1 construct: purchased Millipore UK Ltd (assays run there as a service)
Procedure: mTOR (h) is incubated with 50 mM HEPES pH 7.5, 1 mM EDTA, 0.01% TWEEN®20, 2 mg/mL substrate, 3 mM Manganese Chloride and [γ-^33P-ATP] (specific activity approx. 500 cpm/pmol, concentration as required). The reaction is initiated by the addition of the MnATP mix. After incubation for 40 minutes at room temperature, the reaction is stopped by the addition of 3% phosphoric acid solution. Aliquote of the reaction (10 μL) is then spotted onto a P30 filtermat and washed three times for 5 minutes in 75 mM phosphoric acid and once in methanol prior to drying and scintillation counting.
(§1) The kinase assays described herein were performed at Millipore UK Ltd, Dundee Technology Park, Dundee DD2 1SW, UK.

PI3K p110β/p85α (h) = target: T2, PI3K p110β/p85α (h) (Homo sapiens, UniProt P42338); test: PI3K p110β/p85α (h) non-radioactive (HTRF) assay; format: biochemical
T2 construct: purchased Millipore UK Ltd (assays run there as a service)
T2 sequence (P42338 whole entry): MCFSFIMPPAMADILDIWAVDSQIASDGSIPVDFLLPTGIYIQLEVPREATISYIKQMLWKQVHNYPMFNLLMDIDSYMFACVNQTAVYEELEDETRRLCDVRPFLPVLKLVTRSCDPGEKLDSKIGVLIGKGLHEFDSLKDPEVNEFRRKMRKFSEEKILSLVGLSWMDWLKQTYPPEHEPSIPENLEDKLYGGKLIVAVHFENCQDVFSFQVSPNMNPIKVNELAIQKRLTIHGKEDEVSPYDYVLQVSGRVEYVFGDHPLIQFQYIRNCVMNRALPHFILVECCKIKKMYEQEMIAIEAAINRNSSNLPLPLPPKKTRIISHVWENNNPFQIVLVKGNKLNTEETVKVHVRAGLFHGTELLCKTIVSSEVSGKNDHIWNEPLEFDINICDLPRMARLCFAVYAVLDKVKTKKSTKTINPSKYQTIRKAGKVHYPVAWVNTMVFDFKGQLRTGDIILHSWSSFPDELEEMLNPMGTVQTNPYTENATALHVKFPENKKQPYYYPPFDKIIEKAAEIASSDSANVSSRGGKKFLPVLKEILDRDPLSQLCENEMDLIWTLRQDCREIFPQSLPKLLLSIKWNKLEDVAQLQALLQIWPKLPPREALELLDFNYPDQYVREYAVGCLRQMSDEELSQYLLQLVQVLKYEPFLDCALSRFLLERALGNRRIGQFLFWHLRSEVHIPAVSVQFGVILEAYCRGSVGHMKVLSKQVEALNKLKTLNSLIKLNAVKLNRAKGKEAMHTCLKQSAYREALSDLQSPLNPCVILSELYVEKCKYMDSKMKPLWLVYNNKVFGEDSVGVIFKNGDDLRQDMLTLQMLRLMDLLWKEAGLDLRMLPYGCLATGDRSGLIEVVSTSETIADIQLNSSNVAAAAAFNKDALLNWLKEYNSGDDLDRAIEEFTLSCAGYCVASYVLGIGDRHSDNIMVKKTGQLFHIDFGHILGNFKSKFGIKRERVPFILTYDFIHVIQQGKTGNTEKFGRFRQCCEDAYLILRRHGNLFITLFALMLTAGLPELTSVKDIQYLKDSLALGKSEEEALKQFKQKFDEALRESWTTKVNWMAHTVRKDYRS
T2 sequence (P27986 whole entry partner): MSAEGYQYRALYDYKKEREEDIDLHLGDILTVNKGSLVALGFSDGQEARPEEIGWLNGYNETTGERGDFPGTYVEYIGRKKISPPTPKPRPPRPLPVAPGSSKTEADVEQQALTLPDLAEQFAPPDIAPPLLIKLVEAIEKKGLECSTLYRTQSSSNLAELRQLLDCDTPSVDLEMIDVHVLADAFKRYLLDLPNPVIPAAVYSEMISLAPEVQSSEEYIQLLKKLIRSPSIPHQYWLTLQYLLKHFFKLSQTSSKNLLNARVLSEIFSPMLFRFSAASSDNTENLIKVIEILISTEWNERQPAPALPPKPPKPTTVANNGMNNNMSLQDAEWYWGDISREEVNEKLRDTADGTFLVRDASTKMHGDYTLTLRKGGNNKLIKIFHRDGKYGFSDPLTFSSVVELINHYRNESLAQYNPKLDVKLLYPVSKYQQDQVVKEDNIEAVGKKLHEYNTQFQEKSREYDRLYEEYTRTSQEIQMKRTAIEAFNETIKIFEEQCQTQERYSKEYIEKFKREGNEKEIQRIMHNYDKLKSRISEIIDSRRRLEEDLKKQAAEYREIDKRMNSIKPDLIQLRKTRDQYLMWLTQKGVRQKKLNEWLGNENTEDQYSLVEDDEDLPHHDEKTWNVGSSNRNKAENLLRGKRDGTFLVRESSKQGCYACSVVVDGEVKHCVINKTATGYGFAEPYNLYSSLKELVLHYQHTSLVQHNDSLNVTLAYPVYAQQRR
Procedure: PI3K p110β/p85α (h) [Non-Radioactive Assay]
PI3K (p110β/p85α) (h) is incubated in assay buffer containing 10 μM phosphatidylinositol-4,5-bisphosphate and MgATP (concentration as required). The reaction is initiated by the addition of the MgATP mix. After incubation for 30 minutes at room temperature, the reaction is stopped by the addition of stop solution containing EDTA and biotinylated phosphatidylinositol-3,4,5-trisphosphate. Finally, detection buffer is added, which contains europium-labelled anti-GST monoclonal antibody, GST-tagged GRP1 PH domain and streptavidin-allophycocyanin. The plate is then read in time-resolved fluorescence mode and the homogenous time-resolved fluorescence (HTRF) signal is determined according to the formula HTRF=10000×(Em665 nm/Em620 nm).
as §1

[1] = Pharmacokinetic profiles in rats; format: in vivo; conditions: for F: iv dose 2 mg/kg, oral dose generally 5 or 10 mg/kg; for Cl/F / AUC(0-t) / half-life / Vd: iv dosing, 2 mg/kg; for AUC(0-t) / half-life / Vd: rat, plasma; for Vd: read-out: Vss
Procedure: The compounds disclosed herein are assessed in pharmacokinetic studies in mice, rats, dogs or monkeys. The compounds are administered as a water solution, 2% HPMC+1% TWEEN®80 in water solution, 5% DMSO+5% solutol in saline, 4% MC suspension or capsule. For the intravenous administration, the animals are generally given at 1 or 2 mg/kg dose. For the oral (p.o.) dosing, mice and rats are generally given 5 or 10 mg/kg dose, and dogs and monkeys are generally given 10 mg/kg dose. The blood samples (0.3 mL) are drawn at 0.25, 0.5, 1.0, 2.0, 3.0, 4.0, 6.0, 8.0, 12 and 24 h time points or 0.083, 0.25, 0.5, 1.0, 2.0, 4.0, 6.0, 8.0 and 24 h time points and centrifuged at 3,000 or 4000 rpm for 2 to 10 min. The plasma solutions are collected and stored at −20° C. or −70° C. until analyzed by LC/MS/MS as described above.

[2] = Compound stability in human liver microsomes; format: in vitro ADME; conditions: for half-life at 5 μM / CLint scaled at 5 μM: pH 7.4; for CLint scaled at 5 μM: human liver microsomes, in vivo CLint extrapolated
Procedure: Human or rat liver microsomes incubations were conducted in duplicate in polypropylene tubes. The typical incubation mixtures consisted of human or rat liver microsomes (0.5 mg protein/mL), compounds of interest (5 μM) and NADPH (1.0 mM) in a total volume of 200 μL potassium phosphate buffer (PBS, 100 mM, pH=7.4). Compounds were dissolved in DMSO and diluted with PBS such that the final concentration of DMSO was 0.05%. The enzymatic reactions were commenced with the addition of protein after a 3-min preincubation and incubated in a water bath open to the air at 37° C. Reactions were terminated at various time points (0, 5, 10, 15, 30, 60 min) by adding equal volume of ice-cold acetonitrile. The samples were stored at −80° C. until LC/MS/MS assays.
The concentrations of compounds in the incubation mixtures of human or rat liver microsomes were determined by a LC/MS/MS method. The ranges of the linearity in the concentration range were determined for each tested compounds.
A parallel incubation was performed using denatured microsomes as the negative control, and reactions were terminated at various time points (0, 15, 60 min) after incubation at 37° C.
Dextromethorphan (70 μM) was selected as the positive control, and reactions were terminated at various time points (0, 5, 10, 15, 30, 60 min) after incubation at 37° C. Both positive and negative control samples were included in each assay to ensure the integrity of the microsomal incubation system.
The concentrations of compounds in human or rat liver microsome incubations were plotted as a percentage of the relevant zero time point control for each reaction. The in vivo CLint were extrapolated (ref.: Naritomi Y, Terashita S, Kimura S, Suzuki A, Kagayama A, Sugiyama Y. “Prediction of human hepatic clearance from in vivo animal experiments and in vitro metabolic studies with liver microsomes from animals and humans”, Drug Metabolism and Disposition, 2001, 29, 1316-1324).

U87MG glioblastoma cells = test: Tumor xenograft model (U87MG), tumor growth inhibition; format: in vivo, mice; conditions: oral gavage
Procedure: The efficacy of compounds disclosed herein was evaluated in a standard murine model of tumorigenesis. Human tumor cells (U87MG glioblastoma cells from ATCC) were expended in culture, harvested, and injected subcutaneously onto the rear flank of 6-7 week old female athymic nude mice (BALB/cA nu/nu, Hunan SLAC Laboratory Animal, Co.) (n=6-10 for vehicle group and for each dosing group). When tumors reached a volume of 100-250 mm^3, animals were randomly divided into vehicle control (for example, 5% DMSO+70% CAPTISOL® (30%), 7% HCl (pH1), 18% CAPTISOL® (30%); or 7% DMSO, 7% HCl (pH1), 70% CAPTISOL® (30%), 16% CAPTISOL® (30%), or the like) and compound groups. Subsequent administration of compound by oral gavage begins anywhere from day 0 to day 15 post tumor cell challenge and generally continues with once a day for the duration of the experiment.
Progression of tumor growth is assessed by tumor volumes and recorded as a function of time. The long (L) and short (W) axes of the subcutaneous tumors were measured with calipers twice weekly, and the tumor volume (TV) calculated as (L×W^2)/2). TGI was calculated from the difference between the median tumor volumes of vehicle-treated and drug-treated mice, expressed as a percentage of the median tumor volume of the vehicle-treated control group, by the following relation:
Initial statistical analysis is done by repeated measures analysis of variance (RMANOVA), followed by Scheffe post hoc testing for multiple comparisons. Vehicle alone (5% DMSO+70% CAPTISOL® (30%), 7% HCl (pH1), 18% CAPTISOL® (30%); or 7% DMSO, 7% HCl (pH1), 70% CAPTISOL® (30%), 16% CAPTISOL® (30%), or the like) is the negative control.

[3] = human liver microsomes 0.5 mg protein/mL, compound 5 μM, NADPH, 37° C.

Compound	IC50 (mTOR (h)) [nM]	IC50 (PI3K p110β/p85α (h)) [nM]	F [1] [%]	Cl/F [1] [mL/min/kg]	AUC(0-t) [1] [ng·h/mL]	half-life [1] [h]	Vd [1] [L/kg]	half-life at 5 μM [2, 3] [h]	CLint scaled at 5 μM [2] [mL/min/kg]	TGI % U87MG (U87MG glioblastoma cells; 1 mg/kg, 13 days) [%]	TGI % U87MG (U87MG glioblastoma cells; 3 mg/kg, 13 days) [%]	TGI % U87MG (U87MG glioblastoma cells; 10 mg/kg, 13 days) [%]	TGI % U87MG (U87MG glioblastoma cells; 1 mg/kg, 12 days) [%]	TGI % U87MG (U87MG glioblastoma cells; 3 mg/kg, 12 days) [%]	TGI % U87MG (U87MG glioblastoma cells; 10 mg/kg, 12 days) [%]	T1/2 [2, 3]	TGI % U87MG (U87MG glioblastoma cells; 0.3 mg/kg, 13 days) [%]
COc1ncc(-c2ccn3ncc(C#CCO)c3c2)cc1NS(=O)(=O)c1ccc(F)cc1F [Ex. 4, 2,4-difluoro-N-(5-(3-(3-hydroxyprop-1-yn-1-yl)pyrazolo[1,5-a]pyridin-5-yl)-2-methoxypyridin-3-yl)benzenesulfonamide]	4	22	91.75	4.67	7350	1.93	0.48	4.99	5.81	32	53	89					
COc1ncc(-c2ccn3ncc(C#CCO)c3n2)cc1NS(=O)(=O)c1ccc(F)cc1F [Ex. 1, 2,4-difluoro-N-(5-(3-(3-hydroxyprop-1-yn-1-yl)pyrazolo[1,5-a]pyrimidin-5-yl)-2-methoxypyridin-3-yl)benzenesulfonamide]	9	84	102.00	2.83	12100	3.93	0.32	11.8	2.45				26	37	68		
COc1ncc(-c2ccn3ncc(C#N)c3n2)cc1NS(=O)(=O)c1ccc(F)cc1F [Ex. 2, N-(5-(3-cyanopyrazolo[1,5-a]pyrimidin-5-yl)-2-methoxypyridin-3-yl)-2,4-difluorobenzenesulfonamide]	4	45	69.48	4.33	7720	3.7	0.8						59	76		∞	
COc1ncc(-c2ccn3ncc(C#N)c3c2)cc1NS(=O)(=O)c1ccc(F)cc1F [Ex. 3, N-(5-(3-cyanopyrazolo[1,5-a]pyridin-5-yl)-2-methoxypyridin-3-yl)-2,4-difluorobenzenesulfonamide]	4	41	94.75	4.83	7070	2.77	0.85	40.1	0.72	70	95						26
